Among the data in patent publication US9828396B2, “Alkyne compounds for treatment of complement mediated disorders” (Achillion Pharmaceuticals, Inc., priority 2014, dated 2017) are IC50 values, retold here.

Human factor D, sequence (P00746 26-253): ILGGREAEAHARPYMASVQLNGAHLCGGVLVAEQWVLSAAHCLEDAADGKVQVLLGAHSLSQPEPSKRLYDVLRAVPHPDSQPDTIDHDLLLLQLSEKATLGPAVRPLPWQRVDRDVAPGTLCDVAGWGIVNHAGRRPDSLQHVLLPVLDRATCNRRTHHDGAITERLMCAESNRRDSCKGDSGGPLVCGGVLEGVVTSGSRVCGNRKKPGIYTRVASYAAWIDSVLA

The assay concerns the target Human factor D (Homo sapiens (Human), UniProt P00746). The assay can be described thus: Human Factor D Assay. Conditions: Human factor D 80 nM, substrate Z-L-Lys-SBzl, assay of Example 12. The format is biochemical. As to the method:
Example 12. Human Factor D Assay
Human factor D (purified from human serum, Complement Technology, Inc.) at 80 nM final concentration is incubated with test compound at various concentrations for 5 minutes at room temperature in 50 mM Tris, 1M NaCl, pH 7.5. A synthetic substrate Z-L-Lys-SBzl and DTNB (Ellman's reagent) are added to final concentrations of 100 μM each. The increase in color is recorded at OD405 nm in a microplate in kinetic mode over 30 minutes with 30 second time points in a spectrofluorimeter. IC50 values are calculated by non-linear regression from the percentage of inhibition of complement factor D activity as a function of test compound concentration.
`C#Cc1ccc2c(C(C)=O)cn(CC(=O)N3C[C@H](F)C[C@H]3C(=O)NCc3cccc(Cl)c3F)c2c1` [Compound 1, (2S,4R)-1-(2-(3-acetyl-6-ethynyl-1H-indol-1-yl)acetyl)-N-(3-chloro-2-fluorobenzyl)-4-fluoropyrrolidine-2-carboxamide] returned a concentration for half-maximal inhibition (IC50) of less than 1 µM. On to `CC(=O)c1cn(CC(=O)N2C[C@H](F)C[C@H]2C(=O)NCc2cccc(Cl)c2F)c2cc(C#CC(=O)O)ccc12` [Compound 2, 3-(3-acetyl-1-(2-((2S,4R)-2-(3-chloro-2-fluorobenzylcarbamoyl)-4-fluoropyrrolidin-1-yl)-2-oxoethyl)-1H-indol-6-yl)propiolic acid], for which the IC50 was less than 1 µM. The value for `CC(=O)c1cn(CC(=O)N2C[C@H](F)C[C@H]2C(=O)NCc2cccc(Cl)c2F)c2cc(C#C[Si](C)(C)C)ccc12` [Compound 3, (2S,4R)-1-(2-(3-acetyl-6-((trimethylsilyl)ethynyl)-1H-indol-1-yl)acetyl)-N-(3-chloro-2-fluorobenzyl)-4-fluoropyrrolidine-2-carboxamide] was less than 1 µM; that for `COC(=O)C#Cc1ccc2c(C(C)=O)cn(CC(=O)N3C[C@H](F)C[C@H]3C(=O)NCc3cccc(Cl)c3F)c2c1` [Compound 4, methyl 3-(3-acetyl-1-(2-((2S,4R)-2-(3-chloro-2-fluorobenzylcarbamoyl)-4-fluoropyrrolidin-1-yl)-2-oxoethyl)-1H-indol-6-yl)propiolate] was less than 1 µM; that for `CC(=O)c1cn(CC(=O)N2C[C@H](F)C[C@H]2C(=O)NCc2cccc(Cl)c2F)c2cc(C#Cc3c[nH]c(=O)nc3N)ccc12` [Compound 5, (2S,4R)-1-(2-(3-acetyl-6-((4-amino-2-oxo-1,2-dihydropyrimidin-5-yl)ethynyl)-1H-indol-1-yl)acetyl)-N-(3-chloro-2-fluorobenzyl)-4-fluoropyrrolidine-2-carboxamide] was less than 1 µM. As to `CC(=O)c1cn(CC(=O)N2C[C@H](F)C[C@H]2C(=O)NCc2cccc(Cl)c2F)c2ccc(C#CC(=O)O)cc12` [Compound 6, 3-(3-acetyl-1-(2-((2S,4R)-2-(3-chloro-2-fluorobenzylcarbamoyl)-4-fluoropyrrolidin-1-yl)-2-oxoethyl)-1H-indol-5-yl)propiolic acid], the IC50 is less than 1 µM. The compound `CC(=O)c1cn(CC(=O)N2C[C@H](F)C[C@H]2C(=O)NCc2cccc(Cl)c2F)c2ccc(C#Cc3c[nH]c(=O)nc3N)cc12` [Compound 7, (2S,4R)-1-(2-(3-acetyl-5-((4-amino-2-oxo-1,2-dihydropyrimidin-5-yl)ethynyl)-1H-indol-1-yl)acetyl)-N-(3-chloro-2-fluorobenzyl)-4-fluoropyrrolidine-2-carboxamide] came in with an IC50 of less than 1 µM. As for `CCS(=O)(=O)NC(=O)C#Cc1ccc2c(c1)c(C(C)=O)cn2CC(=O)N1C[C@H](F)C[C@H]1C(=O)NCc1cccc(Cl)c1F` [Compound 8, (2S,4R)-1-(2-(3-acetyl-5-(3-(ethylsulfonamido)-3-oxoprop-1-ynyl)-1H-indol-1-yl)acetyl)-N-(3-chloro-2-fluorobenzyl)-4-fluoropyrrolidine-2-carboxamide], the IC50 is less than 1 µM. The result for `CC(=O)c1cn(CC(=O)N2C[C@H](F)C[C@H]2C(=O)NCc2cccc(Cl)c2F)c2ccc(C#Cc3ncccn3)cc12` [Compound 9, (2S,4R)-1-(2-(3-acetyl-5-(pyrimidin-2-ylethynyl)-1H-indol-1-yl)acetyl)-N-(3-chloro-2-fluorobenzyl)-4-fluoropyrrolidine-2-carboxamide] reads less than 1 µM. `CCS(=O)(=O)NC(=O)C#Cc1ccc2c(C(C)=O)cn(CC(=O)N3C[C@H](F)C[C@H]3C(=O)NCc3cccc(Cl)c3F)c2c1` [Compound 10, (2S,4R)-1-(2-(3-acetyl-6-(3-(ethylsulfonamido)-3-oxoprop-1-ynyl)-1H-indol-1-yl)acetyl)-N-(3-chloro-2-fluorobenzyl)-4-fluoropyrrolidine-2-carboxamide] yielded an IC50 of less than 1 µM.

As for `O=C(O)C#Cc1ccc2c(C(=O)C(F)(F)F)cn(CC(=O)N3C[C@H](F)C[C@H]3C(=O)NCc3cccc(Cl)c3F)c2c1` [Compound 11, 3-(1-(2-((2S,4R)-2-(3-chloro-2-fluorobenzylcarbamoyl)-4-fluoropyrrolidin-1-yl)-2-oxoethyl)-3-(2,2,2-trifluoroacetyl)-1H-indol-6-yl)propiolic acid], the IC50 was less than 1 µM.

Compound `CC(=O)c1cn(CC(=O)N2C[C@H](F)C[C@H]2C(=O)NCc2cccc(Cl)c2F)c2ccc(C#Cc3ncc(O)cn3)cc12` [Compound 13, (2S,4R)-1-(2-(3-acetyl-5-((5-hydroxypyrimidin-2-yl)ethynyl)-1H-indol-1-yl)acetyl)-N-(3-chloro-2-fluorobenzyl)-4-fluoropyrrolidine-2-carboxamide] showed an IC50 of less than 1 µM. The value for `CC(=O)c1cn(CC(=O)N2C[C@H](F)C[C@H]2C(=O)NCc2cccc(Cl)c2F)c2ccc(C#Cc3ccccc3)cc12` [Compound 14, (2S,4R)-1-(2-(3-acetyl-5-(phenylethynyl)-1H-indol-1-yl)acetyl)-N-(3-chloro-2-fluorobenzyl)-4-fluoropyrrolidine-2-carboxamide] was less than 1 µM. The result for `C#Cc1cccc(NC(=O)[C@@H]2C[C@@H](F)CN2C(=O)Cn2nc(C(N)=O)c3ccncc32)c1F` [Compound 15, 1-(2-((2S,4R)-2-(3-ethynyl-2-fluorophenylcarbamoyl)-4-fluoropyrrolidin-1-yl)-2-oxoethyl)-1H-pyrazolo[3,4-c]pyridine-3-carboxamide] reads less than 1 µM; that for `CC(=O)c1cn(CC(=O)N2C[C@H](F)C[C@H]2C(=O)NCc2cccc(Cl)c2F)c2ccc(C#Cc3cncnc3)cc12` [Compound 16, (2S,4R)-1-(2-(3-acetyl-5-(pyrimidin-5-ylethynyl)-1H-indol-1-yl)acetyl)-N-(3-chloro-2-fluorobenzyl)-4-fluoropyrrolidine-2-carboxamide], less than 1 µM. `CC(=O)c1cn(CC(=O)N2C[C@H](F)C[C@H]2C(=O)NCc2cccc(Cl)c2F)c2ccc(C#Cc3ccncc3)cc12` [Compound 17, (2S,4R)-1-(2-(3-acetyl-5-(pyridin-4-ylethynyl)-1H-indol-1-yl)acetyl)-N-(3-chloro-2-fluorobenzyl)-4-fluoropyrrolidine-2-carboxamide] had an IC50 of less than 1 µM. The result for `CC(=O)c1cn(CC(=O)N2C[C@H](F)C[C@H]2C(=O)NCc2cccc(Cl)c2F)c2ccc(C#Cc3cnsc3)cc12` [Compound 18, (2S,4R)-1-(2-(3-acetyl-5-(isothiazol-4-ylethynyl)-1H-indol-1-yl)acetyl)-N-(3-chloro-2-fluorobenzyl)-4-fluoropyrrolidine-2-carboxamide] reads less than 1 µM. The result for `CC(=O)c1cn(CC(=O)N2C[C@H](F)C[C@H]2C(=O)NCc2cccc(Cl)c2F)c2ccc(C#Cc3ccccn3)cc12` [Compound 19, (2S,4R)-1-(2-(3-acetyl-5-(pyridin-2-ylethynyl)-1H-indol-1-yl)acetyl)-N-(3-chloro-2-fluorobenzyl)-4-fluoropyrrolidine-2-carboxamide] reads less than 1 µM; that for `NC(=O)c1nn(CC(=O)N2C[C@H](F)C[C@H]2C(=O)NCc2cccc(Cl)c2F)c2ccc(C#Cc3ncccn3)cc12` [Compound 20, 1-(2-((2S,4R)-2-(3-chloro-2-fluorobenzylcarbamoyl)-4-fluoropyrrolidin-1-yl)-2-oxoethyl)-5-(pyrimidin-2-ylethynyl)-1H-indazole-3-carboxamide], less than 1 µM; that for `CC(=O)c1cn(CC(=O)N2[C@@H]3C[C@@H]3C[C@H]2C(=O)Nc2cccc(Br)n2)c2ccc(C#Cc3ncccn3)cc12` [Compound 21, (1R,3S,5R)-2-(2-(3-acetyl-5-(pyrimidin-2-ylethynyl)-1H-indol-1-yl)acetyl)-N-(6-bromopyridin-2-yl)-2-azabicyclo[3.1.0]hexane-3-carboxamide], less than 1 µM. Consider `NC(=O)c1nn(CC(=O)N2C[C@H](F)C[C@H]2C(=O)Nc2cccc(-c3ccccc3Cl)c2F)c2ccc(C#Cc3ncccn3)cc12` [Compound 22, 1-(2-((2S,4R)-2-(2′-chloro-2-fluorobiphenyl-3-ylcarbamoyl)-4-fluoropyrrolidin-1-yl)-2-oxoethyl)-5-(pyrimidin-2-ylethynyl)-1H-indazole-3-carboxamide], for which the IC50 is less than 1 µM.

Compound `NC(=O)c1nn(CC(=O)N2C[C@H](F)C[C@H]2C(=O)NCc2cccc(Cl)c2F)c2ccc(C#Cc3ccccn3)cc12` [Compound 23, 1-(2-((2S,4R)-2-(3-chloro-2-fluorobenzylcarbamoyl)-4-fluoropyrrolidin-1-yl)-2-oxoethyl)-5-(pyridin-2-ylethynyl)-1H-indazole-3-carboxamide] displayed an IC50 of less than 1 µM.

For the compound `CC(=O)c1cn(CC(=O)N2C[C@H](F)C[C@H]2C(=O)NCc2cccc(Cl)c2F)c2ccc(C#Cc3c[nH]nc3C#N)cc12` [Compound 24, (2S,4R)-1-(2-(3-acetyl-5-((3-cyano-1H-pyrazol-4-yl)ethynyl)-1H-indol-1-yl)acetyl)-N-(3-chloro-2-fluorobenzyl)-4-fluoropyrrolidine-2-carboxamide], the IC50 was less than 1 µM.

As for `NC(=O)c1nn(CC(=O)N2C[C@H](F)C[C@H]2C(=O)Nc2cccc(Cl)c2F)c2ccc(C#Cc3ncccn3)cc12` [Compound 25, 1-(2-((2S,4R)-2-(3-chloro-2-fluorophenylcarbamoyl)-4-fluoropyrrolidin-1-yl)-2-oxoethyl)-5-(pyrimidin-2-ylethynyl)-1H-indazole-3-carboxamide], the IC50 was less than 1 µM. The value for `CC(=O)c1cn(CC(=O)N2C[C@H](F)C[C@H]2C(=O)NCc2cccc(Cl)c2F)c2ccc(C#Cc3cnccn3)cc12` [Compound 26, (2S,4R)-1-(2-(3-acetyl-5-(pyrazin-2-ylethynyl)-1H-indol-1-yl)acetyl)-N-(3-chloro-2-fluorobenzyl)-4-fluoropyrrolidine-2-carboxamide] was less than 1 µM.

By IC50 is commonly meant the concentration needed to halve the response being measured. High values mean a need for much substance, low ones inhibition by little substance.
